Paper PMC10407933, “Four of a Kind: A Complete Collection of ADP-Ribosylated Histidine Isosteres Using Cu(I)- and Ru(II)-Catalyzed Click Chemistry” (The Journal of Organic Chemistry, 2023)
Where two headings read alike, the source gives them in different places. Starred links: 1 amine or outer side, 2 acyl side, 3 side chain; linkers in the order of their positions; H or OH if unused. Non-standard residues stand in square brackets, D forms with d. Residues, ends and D or L forms follow the SMILES beside them. X2 = Nc1ncnc2c1ncn2[C@@H]1O[C@H](COP(=O)(O)OP(=O)(O)OC[C@H]2O[C@@H](n3nncc3C[C@H](N[*:1])C(=O)[*:2])[C@H](O)[C@@H]2O)[C@@H](O)[C@H]1O; X1 = Nc1ncnc2c1ncn2[C@@H]1O[C@H](COP(=O)(O)OP(=O)(O)OC[C@H]2O[C@H](n3nncc3C[C@H](N[*:1])C(=O)[*:2])[C@H](O)[C@@H]2O)[C@@H](O)[C@H]1O

Columns and labels:
[1] = 0.1 M NaOH; for additional peaks of identical mass (isomerization) after NaOH treatment: LC-MS
Protocol: With all four ADPr-His* conjugates available, we next evaluated their stability under various conditions in a liquid-chromatography mass-spectrometry (LC-MS) based assay. The conditions surveyed (NH2OH, TFA, and NaOH) were selected because of their frequent occurrence in ADP-ribosylome-focused proteomics studies.
(§1) Samples were extracted at different time points (2, 4, 8, 24, 48, and 169 h) and quenched with TFA prior to LC-MS injection. Peptide degradation was quantified by analyzing the UV-trace (260 nm) using Xcalibur software. […] Enzymatic turnover of the various peptides was assessed by monitoring AMP release directly (NudT16) or converting released ADPr via NudT5 to AMP. AMP was measured using the AMP-Glo assay (Promega). Samples are background corrected and normalized to NudT16 activity.
Figure S3. UV-trace (260 nm) of the obtained LC-MS spectra after treating β-configured 1,5-disubstituted triazole 24 with 0.1 M NaOH at various time points.
(1 picture or pasted object on this page, not shown here)
Figure S6. UV-trace (260 nm) of the obtained LC-MS spectra after treating α-configured 1,5-disubstituted triazole 29 with 0.1 M NaOH at various time points.

[2] = target: ARH3 (Homo sapiens, UniProt Q9NX46); conditions: 10 μM peptide, 0.5 μM hydrolase, 30 C, AMP-Glo luminescence, normalized to NudT16; for ARH3-mediated hydrolysis of the N-glycosidic linkage: 60 min, 50 mM TrisHCl pH 8, 200 mM NaCl, 10 mM MgCl2, 1 mM DTT, 0.2 μM human NUDT5
Protocol: as §1

[3] = 0 h, quenched with TFA, LC-MS UV-trace 260 nm
[4] = 2 h, quenched with TFA, LC-MS UV-trace 260 nm
[5] = 4 h, quenched with TFA, LC-MS UV-trace 260 nm
[6] = 48 h, quenched with TFA, LC-MS UV-trace 260 nm
[7] = 169 h, quenched with TFA, LC-MS UV-trace 260 nm
[8] = 8 h, quenched with TFA, LC-MS UV-trace 260 nm
[9] = 24 h, quenched with TFA, LC-MS UV-trace 260 nm

ARH3, sequence (Q9NX46 whole entry): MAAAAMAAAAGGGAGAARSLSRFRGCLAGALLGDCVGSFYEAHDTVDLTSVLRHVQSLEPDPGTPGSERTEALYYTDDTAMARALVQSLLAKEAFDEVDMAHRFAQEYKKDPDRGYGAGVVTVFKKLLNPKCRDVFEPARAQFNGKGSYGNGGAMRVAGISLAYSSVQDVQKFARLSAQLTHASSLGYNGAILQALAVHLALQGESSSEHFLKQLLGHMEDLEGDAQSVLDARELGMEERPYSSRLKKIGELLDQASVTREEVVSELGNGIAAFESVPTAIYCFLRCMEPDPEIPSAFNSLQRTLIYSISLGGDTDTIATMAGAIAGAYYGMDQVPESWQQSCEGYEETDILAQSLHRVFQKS

SMILES | additional peaks of identical mass (isomerization) after NaOH treatment ([1]; 24 h) | ARH3-mediated hydrolysis of the N-glycosidic linkage [2] | Accumulated isomers (%) [1, 3] | Accumulated isomers (%) [1, 4] | Intact peptide (%) [1, 4] | Accumulated isomers (%) [1, 5] | Accumulated isomers (%) [1, 6] | Intact peptide (%) [1, 6] | Accumulated isomers (%) [1, 7] | Intact peptide (%) [1, 7] | original peptide present after NaOH treatment ([1]; after 12 h, time course, quenched with TFA, LC-MS UV-trace 260 nm) | Intact peptide (%) [1, 3] | Intact peptide (%) [1, 5] | Accumulated isomers (%) [1, 8] | Intact peptide (%) [1, 8] | Accumulated isomers (%) [1, 9] | Intact peptide (%) [1, 9] | conversion by ARH3 ([2]; within the 1 h reaction, pH 8)
CC(C)C[C@H](NC(=O)CNC(=O)[C@H](C)NC(=O)CNC(=O)[C@H](Cc1cn([C@@H]2O[C@H](COP(=O)(O)OP(=O)(O)OC[C@H]3O[C@@H](n4cnc5c(N)ncnc54)[C@H](O)[C@@H]3O)[C@@H](O)[C@H]2O)nn1)NC(=O)[C@H](Cc1ccccc1)NC(=O)[C@@H](N)[C@@H](C)O)C(=O)N[C@H](C(=O)N[C@H](C(=O)N1CCC[C@H]1C(=O)N[C@H](C(=O)N[C@@H](CC(=O)O)C(=O)N[C@@H](CCCCN)C(=O)O)C(C)C)C(C)C)C(C)C [compound 23] | 5% | unaffected | – | – | – | – | – | – | – | – | – | – | – | – | – | – | – | –
CC(C)C[C@H](NC(=O)CNC(=O)[C@H](C)NC(=O)CNC(=O)[C@H](Cc1cnnn1[C@@H]1O[C@H](COP(=O)(O)OP(=O)(O)OC[C@H]2O[C@@H](n3cnc4c(N)ncnc43)[C@H](O)[C@@H]2O)[C@@H](O)[C@H]1O)NC(=O)[C@H](Cc1ccccc1)NC(=O)[C@@H](N)[C@@H](C)O)C(=O)N[C@H](C(=O)N[C@H](C(=O)N1CCC[C@H]1C(=O)N[C@H](C(=O)N[C@@H](CC(=O)O)C(=O)N[C@@H](CCCCN)C(=O)O)C(C)C)C(C)C)C(C)C [compound 24] (H-TF[X2]GAGLVVPVDK-OH) | – | unaffected | 0% | 39% | 61% | 48% | 71% | 29% | 71% | 29% | 38% | – | – | – | – | – | – | –
CC(C)C[C@H](NC(=O)CNC(=O)[C@H](C)NC(=O)CNC(=O)[C@H](Cc1cn([C@H]2O[C@H](COP(=O)(O)OP(=O)(O)OC[C@H]3O[C@@H](n4cnc5c(N)ncnc54)[C@H](O)[C@@H]3O)[C@@H](O)[C@H]2O)nn1)NC(=O)[C@H](Cc1ccccc1)NC(=O)[C@@H](N)[C@@H](C)O)C(=O)N[C@H](C(=O)N[C@H](C(=O)N1CCC[C@H]1C(=O)N[C@H](C(=O)N[C@@H](CC(=O)O)C(=O)N[C@@H](CCCCN)C(=O)O)C(C)C)C(C)C)C(C)C [compound 28] | 12% | very weakly | – | – | – | – | – | – | – | – | – | – | – | – | – | – | – | –
CC(C)C[C@H](NC(=O)CNC(=O)[C@H](C)NC(=O)CNC(=O)[C@H](Cc1cnnn1[C@H]1O[C@H](COP(=O)(O)OP(=O)(O)OC[C@H]2O[C@@H](n3cnc4c(N)ncnc43)[C@H](O)[C@@H]2O)[C@@H](O)[C@H]1O)NC(=O)[C@H](Cc1ccccc1)NC(=O)[C@@H](N)[C@@H](C)O)C(=O)N[C@H](C(=O)N[C@H](C(=O)N1CCC[C@H]1C(=O)N[C@H](C(=O)N[C@@H](CC(=O)O)C(=O)N[C@@H](CCCCN)C(=O)O)C(C)C)C(C)C)C(C)C [compound 29] (H-TF[X1]GAGLVVPVDK-OH) | – | capable of hydrolyzing | 0% | 26% | 74% | 40% | 62% | 38% | 62% | 38% | – | 100% | 60% | 51% | 49% | 61% | 39% | ~50%
